Tests used:
Experiment in all cases: biochemical
DPB1*0401 = DPB1*0401 (Homo sapiens, UniProt P04440+P20036)
DPA1*0103/DPB1*0201 = DPA1*0103/DPB1*0201 (Homo sapiens, UniProt P04440+P20036, A65V/A84D/A85E/K98E)
DRB3*0101 = DRB3*0101 (Homo sapiens, UniProt P01903+P79483)
DRB3*0202 = DRB3*0202 (Homo sapiens, UniProt P01903+P79483, A212P/D57E/F66Y/L67A/R103Q/R218S/R40L/S89Y/T80R/V86D/Y55F/Y59H)
DRB4*0101 = DRB4*0101 (Homo sapiens, UniProt P01903+P13762, G164S)
DPA1*0201/DPB1*0101 = DPA1*0201/DPB1*0101 (Homo sapiens, UniProt P04440+P20036, F191V/F38Y/F64Y/G113D/G114E/K142R/L158P/L37V/M105V/M116V/M62Q/P115A/Q81R/R125K/R223Q/T114A/T199I/T259P)
DPA1*0201/DPB1*0101, sequence (P20036 29-260 M62Q/Q81R/T114A/K142R/L158P/F191V, other chains not shown): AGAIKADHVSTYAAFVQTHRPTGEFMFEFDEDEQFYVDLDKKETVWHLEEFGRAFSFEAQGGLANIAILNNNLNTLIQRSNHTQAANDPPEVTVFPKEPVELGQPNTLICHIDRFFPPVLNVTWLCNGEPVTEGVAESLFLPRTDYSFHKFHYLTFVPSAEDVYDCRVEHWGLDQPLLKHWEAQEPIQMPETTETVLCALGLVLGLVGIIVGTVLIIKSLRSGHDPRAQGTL

DPA1*0201/DPB1*0501 = DPA1*0201/DPB1*0501 (Homo sapiens, UniProt P04440+P20036, A65V/A84E/F191V/F64L/G113D/G114E/K142R/L158P/M116V/M62Q/P115A/Q81R/R125K/T114A/T199I/T259P/V234M)
DPA1*0201/DPB1*0501, sequence (P20036 29-260 M62Q/Q81R/T114A/K142R/L158P/F191V/T259P, other chains not shown): as the sequence (P20036 29-260 M62Q/Q81R/T114A/K142R/L158P/F191V, other chains not shown) above, with T231P counted along it

DRB3*0202, sequence (P01903 26-254 limits assumed): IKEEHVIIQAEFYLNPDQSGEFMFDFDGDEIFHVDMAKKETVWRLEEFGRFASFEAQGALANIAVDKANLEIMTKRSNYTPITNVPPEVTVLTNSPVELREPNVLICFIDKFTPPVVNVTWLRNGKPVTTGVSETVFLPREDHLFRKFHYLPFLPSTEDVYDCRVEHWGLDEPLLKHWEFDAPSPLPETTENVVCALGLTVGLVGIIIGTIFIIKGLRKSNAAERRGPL
DRB3*0202, sequence (P79483 30-266 R40L/Y55F/D57E/Y59H/F66Y/L67A/T80R/V86D/S89Y/R103Q/A212P/R218S limits assumed): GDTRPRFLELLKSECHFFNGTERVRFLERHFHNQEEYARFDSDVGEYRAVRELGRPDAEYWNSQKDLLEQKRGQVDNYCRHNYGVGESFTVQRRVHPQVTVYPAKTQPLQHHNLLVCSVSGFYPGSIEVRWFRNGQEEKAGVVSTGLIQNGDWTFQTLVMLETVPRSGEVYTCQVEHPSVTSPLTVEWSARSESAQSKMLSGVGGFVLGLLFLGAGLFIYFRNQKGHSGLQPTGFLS

IC50 (DPB1*0401) [µM] | IC50 (DRB4*0101) [µM] | Compound | also measured
2.01 | – | CC[C@H](C)[C@H](NC(=O)[C@H](Cc1ccc(O)cc1)NC(=O)[C@H](C)NC(=O)[C@H](CC(=O)O)NC(=O)[C@H](C)NC(=O)[C@@H](NC(=O)CNC(=O)[C@@H](N)CCC(N)=O)C(C)C)C(=O)N[C@H](C(=O)N[C@@H](CC(C)C)C(=O)N[C@H](C(=O)N[C@H](C(=O)N[C@@H](CC(C)C)C(=O)N1CCC[C@H]1C(=O)N[C@@H](CCCCN)C(=O)O)[C@@H](C)O)C(C)C)[C@@H](C)O [3324.0011] | –
1.61 | – | CC[C@H](C)[C@H](NC(=O)[C@H](CC(=O)O)NC(=O)[C@H](CC(=O)O)NC(=O)[C@H](CO)NC(=O)[C@@H](NC(=O)[C@@H](N)CCCCN)C(C)C)C(=O)N[C@H](C(=O)N[C@@H](Cc1ccc(O)cc1)C(=O)N[C@H](C(=O)N[C@@H](C)C(=O)N[C@H](C(=O)N[C@@H](C)C(=O)N[C@H](C(=O)N[C@@H](CC(C)C)C(=O)N1CCC[C@H]1C(=O)O)[C@@H](C)O)[C@@H](C)O)C(C)C)[C@@H](C)O [3324.0013] | IC50 (DPA1*0103/DPB1*0201): 18 µM; IC50 (DRB3*0101): 6 µM; IC50 (DRB3*0202): 5.27 µM
2.99 | – | CC[C@H](C)[C@H](N)C(=O)N[C@H](C(=O)N[C@@H](Cc1ccc(O)cc1)C(=O)N[C@H](C(=O)N[C@@H](C)C(=O)N[C@H](C(=O)N[C@@H](C)C(=O)N[C@H](C(=O)N[C@@H](CC(C)C)C(=O)N1CCC[C@H]1C(=O)N[C@@H](CC(N)=O)C(=O)N[C@@H](Cc1ccc(O)cc1)C(=O)N[C@@H](CS)C(=O)N[C@@H](CCCNC(=N)N)C(=O)N[C@@H](C)C(=O)O)[C@@H](C)O)[C@@H](C)O)C(C)C)[C@@H](C)O [3324.0014] | –
28 | 0.301 | CC[C@H](C)[C@H](N)C(=O)N[C@@H](C)C(=O)N[C@@H](CO)C(=O)N[C@@H](CC(C)C)C(=O)N[C@@H](Cc1ccccc1)C(=O)N[C@@H](C)C(=O)N[C@@H](C)C(=O)N[C@@H](C)C(=O)NCC(=O)N[C@@H](CC(C)C)C(=O)N[C@@H](C)C(=O)N[C@@H](C)C(=O)N[C@@H](C)C(=O)N[C@@H](C)C(=O)N1CCC[C@H]1C(=O)O [3324.0015] | –
2.5 | – | CC[C@H](C)[C@H](NC(=O)[C@H](Cc1ccc(O)cc1)NC(=O)[C@H](C)NC(=O)[C@H](CC(=O)O)NC(=O)[C@H](C)NC(=O)[C@@H](N)C(C)C)C(=O)N[C@H](C(=O)N[C@@H](CC(C)C)C(=O)N[C@H](C(=O)N[C@H](C(=O)N[C@@H](CC(C)C)C(=O)N1CCC[C@H]1C(=O)N[C@@H](CCCCN)C(=O)N[C@@H](CO)C(=O)N[C@@H](CO)C(=O)O)[C@@H](C)O)C(C)C)[C@@H](C)O [3324.0016] | IC50 (DPA1*0201/DPB1*0101): 0.04 µM; IC50 (DPA1*0201/DPB1*0501): 0.0071 µM
– | 0.028 | CC(C)C[C@H](NC(=O)CNC(=O)[C@H](C)NC(=O)[C@H](C)NC(=O)[C@H](C)N)C(=O)N[C@@H](C)C(=O)N[C@@H](C)C(=O)N[C@@H](C)C(=O)N[C@@H](C)C(=O)N1CCC[C@H]1C(=O)N[C@@H](CC(C)C)C(=O)N[C@@H](CCC(=O)O)C(=O)N[C@@H](CO)C(=O)N[C@@H](CCCNC(=N)N)C(=O)N[C@@H](CCC(N)=O)C(=O)O [3324.0017] | –
